PMC11249239 (PLOS ONE, 2024)

Test system: MCF10A normal breast epithelial cells
Experiment: Cell growth inhibition (CCK8 cytotoxicity assay), MCF10A
Assay type: cell-based
Settings: Homo sapiens, MCF-10A, 48 h treatment, read-out: Average EC50 ± SD, cell growth inhibition

## O=C(CCCCCCC(=O)Nc1ccccc1)NO [SAHA, reference compound]
  EC50: 10.1 ± 0.982 µM
